Activity calls are given as the source filed them.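 The calls were made as follows: active = fitted curve reaches 40% activation below the top valid tested dose, in every test run; inconclusive = test runs disagree on the call; inactive = the rest, including effects opposite to the expected direction.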
Assay: E-selectin inducers in HUVECs, dose response, imaging, HUVEC, cherry-picked samples (AID 977605);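 also: signal is the share of imaged cells scored positive for E-selectin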
Conditions: HUVEC E-selectin immunostaining, percent of TNF-alpha response over vehicle

With C[C@@H]1CN([C@H](C)CO)C(=O)c2cc(N(C)C)ccc2O[C@H]1CN(C)Cc1ccc(C(=O)O)cc1 as the molecule, how does the activation (at 19.5 µM (top of the series)) read?
Its activation is -0.039% (inactive).

Which activation (at 21 µM (top of the series)) does the source give for CC(C)NC(=O)Nc1ccc2c(c1)CC(=O)N([C@H](C)CO)C[C@H](C)[C@@H](CN(C)Cc1ccc(C(=O)O)cc1)O2 here?
The activation was -0.068% (inactive).

With C[C@H]1CN([C@@H](C)CO)C(=O)c2cccc(NC(=O)Nc3cccc4ccccc34)c2O[C@H]1CN(C)Cc1ccc(-c2ccccc2)cc1 as the molecule, how does the activation (at 19.5 µM (top of the series)) read?
Its activation is 0.067% (inactive).

With CCNC(=O)CC1C(=O)N(c2ccc(OC)cc2)C(=O)N1CCOC (stereo unspecified) as the molecule, how does the activation (at 19.5 µM (top of the series)) read?
Its activation is -0.131% (inactive).

Which activation (at 21 µM (top of the series)) does the source give for C[C@@H]1CN([C@H](C)CO)S(=O)(=O)c2ccc(-c3ccncc3)cc2O[C@H]1CN(C)Cc1ccc(Oc2ccccc2)cc1 here?
The activation was 23.2% (inactive).

Which activation (at 19.5 µM (top of the series)) does the source give for CO[C@H]1CN(C)C(=O)c2cc(NC(=O)Nc3ccc(Cl)cc3)ccc2OC[C@H](C)NC[C@H]1C here?
Its activation is 0.158% (inactive).

With O=C1Nc2ccccc2C1Cc1ccccn1 (stereo unspecified) as the molecule, how does the activation (at 19.5 µM (top of the series)) read?
Its activation is -0.092% (inactive).

For C[C@H](CO)N1C[C@H](C)[C@H](CN(C)Cc2ccc3c(c2)OCO3)Oc2ccc(NC(=O)Cn3cnnn3)cc2C1=O, which activation (at 19.5 µM (top of the series)) is on record?
Its activation is 2.56% (inactive).

For C[C@@H]1CN([C@@H](C)CO)C(=O)Cc2cc(NC(=O)Nc3ccc(F)cc3)ccc2O[C@@H]1CN(C)Cc1ccncc1, which activation (at 19.5 µM (top of the series)) is on record?
The activation was 10.4% (inactive).

With C[C@@H]1CN([C@@H](C)CO)C(=O)Cc2cc(NS(=O)(=O)c3cccs3)ccc2O[C@H]1CN(C)C(=O)Nc1ccc(F)cc1 as the molecule, how does the activation (at 19.5 µM (top of the series)) read?
Its activation is -0.169% (inactive).

For O=C(COc1ccc(Cl)cc1)Nc1nnc(S(=O)(=O)N2CCCCCC2)s1, which activation (at 19.5 µM (top of the series)) is on record?
Its activation is 1.11% (inactive).

Which activation (at 19.5 µM (top of the series)) does the source give for C[C@H]1CN([C@@H](C)CO)C(=O)c2cccc(NC(=O)c3ccc(-c4nccs4)cc3)c2O[C@@H]1CN(C)Cc1ccc(Cl)c(Cl)c1 here?
Its activation is 4.07% (inactive).

For Cc1noc(C)c1S(=O)(=O)Nc1ccc2c(c1)C(=O)N([C@H](C)CO)C[C@@H](C)[C@H](CN(C)Cc1ccc3c(c1)OCO3)O2, which activation (at 19.5 µM (top of the series)) is on record?
Its activation is -0.134% (inactive).

Which activation (at 19.5 µM (top of the series)) does the source give for COc1ccc(S(=O)(=O)Nc2ccc3c(c2)C(=O)N([C@H](C)CO)C[C@@H](C)[C@@H](CN(C)Cc2ccc(Cl)c(Cl)c2)O3)cc1 here?
The activation was -0.147% (inactive).

With COc1ccc(CN(C)C[C@H]2Oc3c(NC(=O)c4cnccn4)cccc3C(=O)N([C@H](C)CO)C[C@@H]2C)cc1 as the molecule, how does the activation (at 19.5 µM (top of the series)) read?
The activation was 0.248% (inactive).

Which activation (at 19.5 µM (top of the series)) does the source give for CN(CC(=O)Nc1ccccc1Br)C(=O)CNC(=O)C1CCCCC1 here?
The activation was 0.383% (inactive).

With C[C@H](CO)N1C[C@H](C)[C@H](CN(C)S(=O)(=O)c2ccccc2)Oc2ccc(NC(=O)Nc3ccc(F)cc3)cc2CC1=O as the molecule, how does the activation (at 19.5 µM (top of the series)) read?
The activation was 0.322% (inactive).

For C[C@@H]1CCCCO[C@@H](CN(C)S(C)(=O)=O)[C@@H](C)CN([C@H](C)CO)C(=O)c2cc(NC(=O)CCCN(C)C)ccc2O1, which activation (at 19.5 µM (top of the series)) is on record?
The activation was -0.145% (inactive).

For CC(C)NC(=O)N(C)C[C@H]1Oc2c(NC(=O)c3ccc(-c4nccs4)cc3)cccc2C(=O)N([C@@H](C)CO)C[C@H]1C, which activation (at 19.5 µM (top of the series)) is on record?
The activation was 2.24% (inactive).

With O=S(=O)(c1ccc(F)cc1)N1CCCN(c2nccc(C(F)(F)F)n2)CC1 as the molecule, how does the activation (at 19.5 µM (top of the series)) read?
Its activation is -0.174% (inactive).

With Cc1nn(CCS(=O)(=O)c2ccc(Cl)cc2)c(C)c1Br as the molecule, how does the activation (at 19.5 µM (top of the series)) read?
The activation was 0.08% (inactive).

For Cc1ccc(S(=O)(=O)N2CCN(C(=O)Cc3sc(C)nc3-c3ccc(F)cc3)CC2)c(C)c1, which activation (at 19.5 µM (top of the series)) is on record?
Its activation is -0.025% (inactive).

With C[C@@H]1CN([C@H](C)CO)C(=O)Cc2cc(NS(C)(=O)=O)ccc2O[C@H]1CN(C)S(=O)(=O)c1cn(C)cn1 as the molecule, how does the activation (at 19.5 µM (top of the series)) read?
The activation was -0.104% (inactive).

Which activation (at 19.5 µM (top of the series)) does the source give for C[C@@H]1CN([C@H](C)CO)C(=O)c2cccc(NS(=O)(=O)c3cn(C)cn3)c2O[C@@H]1CN(C)Cc1ccc(Cl)c(Cl)c1 here?
Its activation is 0.02% (inactive).

For CC(=O)Nc1ccc(CNc2nc(NC(C)C)nc3cc(-c4ccccc4)sc23)cc1, which activation (at 19.5 µM (top of the series)) is on record?
The activation was 1.22% (inactive).

Which activation (at 19.5 µM (top of the series)) does the source give for COc1ccccc1N(C(=O)c1snc(C(N)=O)c1N)C(C(=O)NCc1ccccc1)c1ccc(C)o1 (stereo unspecified) here?
The activation was -0.235% (inactive).

Which activation (at 19.5 µM (top of the series)) does the source give for Cc1ccc(S(=O)(=O)N[C@@H](Cc2ccccc2)C(=O)N2CCC(C(=O)N[C@@H](CCC(N)=O)C(=O)O)CC2)cc1 here?
Its activation is 0.009% (inactive).

For C[C@@H]1CN([C@H](C)CO)C(=O)c2cc(NS(=O)(=O)c3cn(C)cn3)ccc2O[C@H]1CN(C)C(=O)Nc1ccc2c(c1)OCO2, which activation (at 19.5 µM (top of the series)) is on record?
The activation was 0.041% (inactive).

Which activation (at 19.5 µM (top of the series)) does the source give for COc1ccc(S(=O)(=O)Nc2ccc3c(c2)CC(=O)N([C@H](C)CO)C[C@H](C)[C@H](CN(C)C(=O)NC2CCCCC2)O3)cc1 here?
The activation was -0.057% (inactive).

For CCOc1cc(N2CCOCC2)c(OCC)cc1NC(=O)c1ccc(S(=O)(=O)N2CC(C)OC(C)C2)cc1 (stereo unspecified), which activation (at 19.5 µM (top of the series)) is on record?
Its activation is -0.215% (inactive).

Which activation (at 19.5 µM (top of the series)) does the source give for CCc1ccc(N2CC(C(=O)Nc3ccc(F)cc3)CC2=O)cc1 (stereo unspecified) here?
Its activation is 0.132% (inactive).

For C[C@@H]1CN([C@@H](C)CO)C(=O)c2cc(NC(=O)CCCCCC(=O)Nc3ccccc3N)ccc2O[C@H]1CN(C)C(=O)Nc1ccc2c(c1)OCO2, which activation (at 21 µM (top of the series)) is on record?
The activation was 0.05% (inactive).

For C[C@@H]1CN([C@H](C)CO)C(=O)Cc2cc(NC(=O)Nc3ccc(F)cc3)ccc2O[C@@H]1CN(C)S(=O)(=O)c1ccc(Cl)cc1, which activation (at 21 µM (top of the series)) is on record?
Its activation is 0.732% (inactive).

For O=S1(=O)CC(N2CCN(Cc3ccccc3F)CC2)CN1Cc1cn(Cc2ccccc2)nn1 (stereo unspecified), which activation (at 19.5 µM (top of the series)) is on record?
Its activation is 0.129% (inactive).

With Cc1ccc(SCc2cc(=O)n(C)[nH]2)cc1 as the molecule, how does the activation (at 19.5 µM (top of the series)) read?
The activation was 0.221% (inactive).

For CC(C)NC(=O)N(C)C[C@@H]1Oc2ccc(NC(=O)CCCN(C)C)cc2C(=O)N([C@@H](C)CO)C[C@H]1C, which activation (at 19.5 µM (top of the series)) is on record?
The activation was -0.112% (inactive).

For CCc1nc(=O)c(-c2ccccc2)c(C)n1-c1ccccc1, which activation (at 19.5 µM (top of the series)) is on record?
The activation was -0.02% (inactive).

With COc1ccccc1CSc1nc2c(c(=O)n(C)c(=O)n2C)n1C as the molecule, how does the activation (at 19.5 µM (top of the series)) read?
Its activation is -0.003% (inactive).

Which activation (at 21 µM (top of the series)) does the source give for C[C@H]1CN([C@@H](C)CO)C(=O)c2cccc(NC(=O)c3ccc(-c4nccs4)cc3)c2O[C@H]1CN(C)Cc1ccc(Oc2ccccc2)cc1 here?
The activation was 0.436% (inactive).

With CCC(=O)N(C)C[C@H]1Oc2cc(C3=CCCC3)ccc2S(=O)(=O)N([C@@H](C)CO)C[C@@H]1C as the molecule, how does the activation (at 19.5 µM (top of the series)) read?
The activation was -0.074% (inactive).

For COc1ccc(NC(=O)NC2(C(=O)N3CCOCC3)CCCCC2)cc1, which activation (at 19.5 µM (top of the series)) is on record?
The activation was 0.439% (inactive).

For CN(C)c1cccc(C(=O)NCc2ccc3c(c2)OCO3)c1, which activation (at 19.5 µM (top of the series)) is on record?
Its activation is 8.26% (inactive).

Which activation (at 19.5 µM (top of the series)) does the source give for C[C@@H]1CN([C@@H](C)CO)C(=O)c2cccc(NC(=O)Nc3ccc4c(c3)OCO4)c2O[C@H]1CN(C)S(=O)(=O)c1ccc(F)cc1 here?
Its activation is -0.076% (inactive).

Which activation (at 19.5 µM (top of the series)) does the source give for O=C(Cc1ccc(-n2c(=O)c3sccc3n(Cc3ccc(F)cc3)c2=O)cc1)NCc1ccco1 here?
The activation was 0.008% (inactive).

With C[C@H](CO)N1C[C@H](C)[C@H](CN(C)C(=O)Nc2ccc3c(c2)OCO3)Oc2ccc(NC(=O)CCCCCC(=O)Nc3ccccc3N)cc2CC1=O as the molecule, how does the activation (at 18 µM (top of the series)) read?
Its activation is 0.255% (inactive).

Which activation (at 19.5 µM (top of the series)) does the source give for COc1ccc([C@H]2CC(=O)C[C@@H](CCn3nnc4ccccc43)O2)cc1 here?
The activation was 0.021% (inactive).

Which activation (at 21 µM (top of the series)) does the source give for C[C@H](CO)N1C[C@H](C)[C@@H](CN(C)Cc2ccc(Cl)c(Cl)c2)Oc2c(NC(=O)CCCCCC(=O)Nc3ccccc3N)cccc2C1=O here?
The activation was 3.2% (inactive).

For COc1ccc(Nc2n[nH]c(N)c2C(N)=O)cc1, which activation (at 19.5 µM (top of the series)) is on record?
Its activation is -0.163% (inactive).

With Cc1ccc(S(=O)(=O)N(C)C[C@H]2Oc3ccc(N(C)C)cc3C(=O)N([C@@H](C)CO)C[C@@H]2C)cc1 as the molecule, how does the activation (at 19.5 µM (top of the series)) read?
The activation was 9.64% (inactive).

For COC(=O)c1ccc(CNC(=O)c2ccc(OC)c(S(=O)(=O)NC3CCCC3)c2)cc1, which activation (at 19.5 µM (top of the series)) is on record?
The activation was -0.105% (inactive).

With C[C@@H]1CN([C@H](C)CO)C(=O)c2cccc(NC(=O)c3ccncc3)c2O[C@@H]1CN(C)Cc1ccc(C(=O)Nc2ccccc2N)cc1 as the molecule, how does the activation (at 16 µM (top of the series)) read?
Its activation is 4.83% (inactive).

Source: PubChem BioAssay AID977605 (Broad Institute, 2014)
